These results are taken from US20260014095A1, “PATCH […] PREPARATION METHOD AND USE THEREOF” (DEMOTECH.INC., priority 2022, published 2026).

The nature of data set [1]: Solubility of colchicine in different types of pressure-sensitive adhesives. The format is physicochemical. As to conditions: for State in the 4098 pressure-sensitive adhesive: 0 days; for Stability (crystallization or not) in the 4098 pressure-sensitive adhesive: room temperature for 4 months. The procedure:
Colchicine with different contents was dissolved in pressure-sensitive adhesive systems with different properties.

The nature of data set [2]: Solubility test of colchicine in solvents. The format is physicochemical. The conditions noted are these: thermodynamic from solid, 25° C. The procedure: About 2 g of the colchicine raw material was weighed and placed in a 100 ml brown volumetric flask, into which 10 ml of a solvent was added. The mixture was uniformly mixed, placed in a thermostatic oscillator with a water bath at 25° C., and observed periodically, into which the raw material was continuously added once the solution became clear. […] After the saturated solution was centrifuged in a centrifuge, the supernatant was taken and diluted to a suitable concentration, the concentration of which was then determined using the external standard method, and the solubility was calculated.

The solubility is the dissolved amount per volume that the medium holds.

Molecules are shown by their SMILES. ≈ marks a conversion by molar mass, not a printed value.

In the case of `COc1cc2c(c(OC)c1OC)-c1ccc(OC)c(=O)cc1[C@@H](NC(C)=O)CC2` [colchicine, N-(5,6,7,9-tetrahydro-1,2,3,10-tetramethoxy-9-oxobenzo[α]cycloheptatrienocycloheptatrien-7-yl)-(S)-acetamide], the “State in the 4098 pressure-sensitive adhesive” value in data set [1] (content higher than 5%) is given as “semitransparent”; in data set [1] (content of colchicine 5% or less) it was “transparent”. The “Stability (crystallization or not) in the 4098 pressure-sensitive adhesive” value is “no crystallization is found” in data set [1] (content 5% or less) and “crystallization is precipitated” in data set [1] (content more than 5%). Moreover, the “Highest solubility of colchicine in typical acrylic pressure-sensitive adhesives” value in data set [1] (without a permeation enhancer) was “about 5%”. Further, the solubility at 24 h is 740 mg/mL (≈ 1850 mM) in data set [2] (1 M triethanolamine (TEOA) in ethanol, organic solvent or mixture, 1M solution of TEOA (triethanolamine) in ethanol); 350 mg/mL (≈ 876 mM) in data set [2] (organic solvent or mixture, DGME (diethylene glycol monoethyl ether)); 380 mg/mL (≈ 951 mM) in data set [2] (organic solvent or mixture, Ethanol:ethyl acetate (1:1, v/v)); 0.48 mg/mL (≈ 1.2 mM) in data set [2] (organic solvent or mixture, Ethyl acetate); 590 mg/mL (≈ 1480 mM) in data set [2] (organic solvent or mixture, ethanol); above 1000 mg/mL in data set [2] (water).
